# Starred links: 1 amine or outer side, 2 acyl side, 3 side chain; linkers in the order of their positions; H or OH if unused. Positions of bridges follow the written chain, without caps; N, C: chain ends. Non-standard residues stand in square brackets, D forms with d. Residues, ends and D or L forms follow the SMILES beside them. Chains are numbered I, II in the order given. Actinocin(9to1) = Cc1c2oc3c(C)ccc(C(=O)[*:1])c3nc-2c(C(=O)[*:2])c(N)c1=O; NMeV = CN[C@H](C(=O)O)C(C)C; Sar = CNCC(=O)O
# Columns and labels:
# [1] = NR (neutral red) viability assay, IC-21 cells; type: cell-based, Mus musculus; conditions: mouse, IC-21, 72 h
# Text: (§1) The IC-21 (Mus musculus macrophage cells, TIB-186) and RAW 264.7 (Mus musculus macrophage cells, TIB-71) cell lines used in this study were obtained from the American Type Culture Collection (ATCC, Manassas, VA, USA). The selection of IC-21 and RAW 264.7 cell lines for studies on inflammation and antioxidant activity is based on two main reasons: the cell type and their origin. Firstly, both IC-21 and RAW 264.7 cell lines are macrophages, which play a crucial role in the immune system, being essential for the inflammatory response and regulation of oxidative stress. These cells have the capacity to produce pro-inflammatory cytokines, express transcription factors such as NF-κB, and generate NO, making them ideal models to understand inflammatory mechanisms. Moreover, macrophages are involved in the activation of Nrf2, a transcription factor critical for the antioxidant response, allowing these cell lines to enable a comprehensive assessment of antioxidant activity within an inflammatory context.
# (§2) Cultivated in a Roswell Park Memorial Institute (RPMI) 1640 medium (RPMI 1640 Sigma-Aldrich, CAS No. R7755, St. Louis, MO, USA) supplemented with 2 mM L-glutamine (≥99% Sigma-Aldrich, CAS No. 56-85-9, St. Louis, MO, USA), 10% foetal bovine serum (FBS Sigma-Aldrich, CAS No. TMS-016, St. Louis, MO, USA), and 10,000 units of penicillin and 10 mg streptomycin mL^−1 (Sigma-Aldrich, CAS No. P4333, St. Louis, MO, USA) in culture flasks, the cells were maintained in an incubator under normoxic conditions (20–21% O2) and a humidified atmosphere (5% CO2, at 37 °C).
# (§3) Stock solutions of the samples (extracts and compounds) were prepared at a concentration of 1 mM using dimethyl sulfoxide (DMSO ≥ 99.9% Sigma-Aldrich, CAS No. 67-68-5, St. Louis, MO, USA) as the solvent. Dilutions from these stock solutions were then made to achieve concentrations between 100 and 0.20 μg mL^−1 or μM in the culture medium, which contained 0.5% DMSO. A control group consisting only of the culture medium with 0.5% DMSO was also included to determine its potential cytotoxicity.
# (§4) The 50% cytotoxic concentration (CC50), 50% inhibitory concentration (IC50), and half-maximal effective concentration (EC50) values were calculated using the sigmoidal dose–response function. All experiments were conducted in triplicate, and the data obtained were expressed as the mean and standard deviation. A two-way analysis of variance (ANOVA) combined with Dunnett’s multiple comparisons test (p < 0.001) was performed for the cytotoxicity, NF-κB inhibition, NO inhibition and Nrf2 activation assays, while a one-way ordinary ANOVA combined with Dunnett’s multiple comparisons test (p < 0.001) was conducted for the SOD assay. All statistical analyses were performed using GraphPad Prism version 10.0.0 (La Jolla, CA, USA, www.graphpad.com, accessed on 28 August 2024).
# (§5) Cell viability was evaluated using a colorimetric assay in 96-well plates, employing 3-amino-7-dimethylamino-2-methylphenazine hydrochloride salt reagent (NR, Sigma-Aldrich, CAS No. 553-24-2, St. Louis, MO, USA). ACTD (≥95% Sigma-Aldrich, CAS No. 50-76-0, St. Louis, MO, USA) was used as a positive control, with a CC50 value of 0.01 μg mL^−1 for the extracts, or 0.008 μM for the compounds. The IC-21 and RAW 264.7 cell lines were cultured in 96-well plates at 37 °C with 5% CO2 until >90% confluency was achieved (1 × 10^4 cells per well). Subsequently, the cultures were treated with sample dilutions (100–0.20 μg mL^−1 or μM) for 72 h at 37 °C with 5% CO2 in phenol red-free RPMI. The supernatant was then discarded, and the cells were washed with phosphate-buffered saline (PBS) before being incubated with […] NR (50 μg mL^−1; 173 μM) for 3 h at 37 °C with 5% CO2. NR labelling was performed after DMSO treatment. […]
# [2] = NR (neutral red) viability assay, RAW 264.7 cells; type: cell-based, Mus musculus; conditions: mouse, RAW 264.7, 72 h
# Text: as §1, §2, §3, §4, §5
# [3] = NR viability assay, value not assigned to one cell line; type: cell-based, Mus musculus; conditions: mouse
# Experimental: (§6) Cell viability was evaluated using a colorimetric assay in 96-well plates, employing 3-amino-7-dimethylamino-2-methylphenazine hydrochloride salt reagent (NR, Sigma-Aldrich, CAS No. 553-24-2, St. Louis, MO, USA). ACTD (≥95% Sigma-Aldrich, CAS No. 50-76-0, St. Louis, MO, USA) was used as a positive control, with a CC50 value of 0.01 μg mL^−1 for the extracts, or 0.008 μM for the compounds. The IC-21 and RAW 264.7 cell lines were cultured in 96-well plates at 37 °C with 5% CO2 until >90% confluency was achieved (1 × 10^4 cells per well). Subsequently, the cultures were treated with sample dilutions (100–0.20 μg mL^−1 or μM) for 72 h at 37 °C with 5% CO2 in phenol red-free RPMI. The supernatant was then discarded, and the cells were washed with phosphate-buffered saline (PBS) before being incubated with […] NR (50 μg mL^−1; 173 μM) for 3 h at 37 °C with 5% CO2. NR labelling was performed after DMSO treatment. After incubation, the labelled sample dilutions were rapidly washed with a fixative solution composed of 1% calcium chloride (CaCl2 Sigma-Aldrich, CAS No. 10043-52-4, St. Louis, MO, USA) and 0.5% formaldehyde solution (≥36.0% in H2O Sigma-Aldrich, CAS No. 50-00-0, St. Louis, MO, USA), then diluted with 100 μL of the NR extraction solution. Finally, the plates were read at 540 nm using a microplate reader (Anthos 2020, version 2.0.5, Biochrom Ltd., Cambridge, UK).
# [4] = test system: IC-21 and RAW 264.7 cell lines; experiment: as above; type: cell-based, Mus musculus; conditions: across IC-21 and RAW 264.7 / cell line not given, compounds series
# Experimental: as §6
# Nrf2 = conditions: cited from earlier work
SMILES,CC50 at 72 h ([1]; compounds series) [nM],CC50 at 72 h ([1]; extracts series) [µg/mL],CC50 at 72 h ([2]; compounds series) [nM],CC50 at 72 h ([2]; extracts series) [µg/mL],"CC50 at 72 h ([3]; across IC-21 and RAW 264.7 / cell line not given, compounds series) [nM]","CC50 at 72 h ([3]; cell line not stated, extracts series) [µg/mL]",CC50 [4] [nM],concentration activating the Nrf2 signalling pathway (Nrf2) [µM]
"Cc1c2oc3c(C)ccc(C(=O)N[C@@H]4C(=O)N[C@H](C(C)C)C(=O)N5CCC[C@H]5C(=O)N(C)CC(=O)N(C)[C@@H](C(C)C)C(=O)O[C@@H]4C)c3nc-2c(C(=O)N[C@@H]2C(=O)N[C@H](C(C)C)C(=O)N3CCC[C@H]3C(=O)N(C)CC(=O)N(C)[C@@H](C(C)C)C(=O)O[C@@H]2C)c(N)c1=O [ACTD, actinomycin D, reference compound] (I: T[dV]P[Sar][NMeV] / II: T[dV]P[Sar][NMeV]; ester I:1-I:C, II:1-II:C; linker I:N-II:N via Actinocin(9to1))",8.5,0.0143,8.8,0.0193,8.5 to 8.8,0.01,8,–
C[S+]([O-])CCCCN=C=S (centres unmarked) [sulforaphane],–,–,–,–,–,–,–,5 to 20
